Experimental data published in ChEMBL document CHEMBL5291721, “A preclinical secondary pharmacology resource illuminates target-adverse drug reaction associations of marketed drugs” (Nat Commun, 2023).

Target: T1, Prostaglandin G/H synthase 1 (Rattus norvegicus, UniProt Q63921)
T1 sequence (Q63921 whole entry): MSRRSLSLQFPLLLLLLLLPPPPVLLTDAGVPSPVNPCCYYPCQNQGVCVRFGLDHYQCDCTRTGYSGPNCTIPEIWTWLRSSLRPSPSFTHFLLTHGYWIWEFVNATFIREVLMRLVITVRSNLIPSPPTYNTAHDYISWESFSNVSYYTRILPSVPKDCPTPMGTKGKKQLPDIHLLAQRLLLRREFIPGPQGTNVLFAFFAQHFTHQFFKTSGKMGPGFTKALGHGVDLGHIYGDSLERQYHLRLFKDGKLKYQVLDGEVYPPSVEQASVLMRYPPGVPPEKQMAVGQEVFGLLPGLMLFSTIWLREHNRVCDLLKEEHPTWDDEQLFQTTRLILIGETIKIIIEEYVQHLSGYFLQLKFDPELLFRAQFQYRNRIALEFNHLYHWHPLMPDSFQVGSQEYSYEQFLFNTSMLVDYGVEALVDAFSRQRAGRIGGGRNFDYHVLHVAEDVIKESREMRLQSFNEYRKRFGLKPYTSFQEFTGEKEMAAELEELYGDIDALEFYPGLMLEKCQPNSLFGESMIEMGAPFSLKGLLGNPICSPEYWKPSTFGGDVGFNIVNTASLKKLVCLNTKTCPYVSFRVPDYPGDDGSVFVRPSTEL
Format: functional
Note: assay procedure not described here.

Compound: COC(=O)N[C@@H](C)CNc1nccc(-c2cn(C(C)C)nc2-c2cc(Cl)cc(NS(C)(=O)=O)c2F)n1 [ENCORAFENIB]
- AC50: > 30 µM
